# Measurements: patent US10988457B2, “TLR inhibitors” (Insilico Medicine IP Limited, priority 2019, dated 2021)
# Like-named read-outs stand apart in the source and are kept apart here.
# Assays:
# [1] = tested on: TLR7/8; experiment: TLR7/8 Inhibition Assay IC50 in human PBMC's, cytokine release after CL075 stimulation (Luminex); assay type: cell-based; details: human PBMC's from one donor, CL075 2 μg/mL, 24 hours, eight concentrations 0.01-100 μM
# Protocol: (§1) Cryopreserved human PBMC's were drip-thawed. Cells were diluted to the appropriate density (1×10^5 per well) and seeded into 96-well polypropylene plates with 150 μL per well of culture medium (RPMI 1640, 10% heat-inactivated FBS, 1% penicillin/streptomycin, 2 mM L-glutamine) for compound test wells.
# Consequently, the final DMSO vehicle concentration in the assay was from 1 to 0.5%.
# Than plates were centrifuged at 200×g for 10 minutes. […] Cytokine levels in each sample were determined using Luminex methodology, per the manufacturer's protocol.
# The interpolated data were then normalized to the vehicle or unstimulated control.
# Outlier calculation was performed using the Grubbs maximum normed residual test.
# Eight test compounds were evaluated for their ability to inhibit the TLR7/8 in PBMC's from one human donor following incubation of 24 hours.
# [2] = tested on: TLR7/8; details: reference compound 100 nM, CL075 2 μg/mL, human PBMC's, 24 hours
# Protocol: Namely, in the present experiment their ability was evaluated to inhibit TLR7/8 in human PBMC's, as measured by the release of specific cytokines. The following cytokines were measured for a complete cytokine response profile (no dilution of samples): IL-1β, IL-6, IL-12p40, TNFα and IFNα.
# Levels of each cytokine induction were interpolated from standard curves using a 5-parameter non-linear regression analysis, where y=(A+((B−A)/(1+(((B−E)/(E−A))*((x/C)^D))))). The interpolated data were then normalized to the vehicle control. Percent of control (PoC) was also calculated using the formula, PoC=(test sample/positive vehicle control)×100.
# as §1, with “Fetal Bovine Serum (FBS),” for “FBS,”, “wells. For the control wells, cells (1×10^5 per well) were plated in 150 μL per well of culture medium.” for “wells.”
# Cells were incubated at 37° C., 5% CO2 for 1 hour prior to the addition of test compounds or controls.
# Test compounds were solubilized in DMSO to make 20× stock solutions, then diluted further with cell culture medium.
# Test compounds were added to the PBMC's in volumes of 10 μL and incubated for 1 hour at 37° C., 5% CO2. Compounds were tested in duplicates at final assay concentrations of 10 μM.
# Plates were incubated at 37° C., 5% CO2 for 24 hours. Plates were centrifuged at 200×g for 10 minutes. Cell culture supernatants were collected and stored at −80° C. until needed for analysis.
# Harvested cell culture supernatants were measured for IL-1β, IL-6, IL-12p40, TNFα and IFNα release to assess dual TLR7/8 inhibition.
# [3] = read-out: IC50 levels for test compounds, IFNα
# [4] = read-out: IC50 levels for test compounds, IL-1β
# [5] = read-out: IC50 levels for test compounds, L-6
# [6] = read-out: IC50 levels for test compounds, L-12p40
# [7] = read-out: IC50 levels for test compounds, TNFα
"IC50 [1, 3]","IC50 [1, 4]","IC50 [1, 5]","IC50 [1, 6]","IC50 [1, 7]",Compound,"TLR7/8 Inhibition, IFNα (POC %) [2]","TLR7/8 Inhibition, IL-1β (POC %) [2]","TLR7/8 Inhibition, IL-6 (POC %) [2]","TLR7/8 Inhibition, IL-12p40 (POC %) [2]","TLR7/8 Inhibition, TNFα (POC %) [2]"
≤ 10 µM,> 20 µM,> 20 µM,10 to 20 µM,> 20 µM,COc1ccc2c(c1)CCN(CCNC(=O)C1CCCN(c3ccc(C#N)cc3)C1)C2 (stereo not drawn) [Compound 24],,,,,
,,,,,"C[C@@H]1C[C@H]2[C@@H]3CCC4=CC(=O)C=C[C@]4(C)[C@@]3(F)[C@@H](O)C[C@]2(C)[C@@]1(O)C(=O)CO [Dexamethasone, dexamethasone]",26.1%,26.8%,34.7%,34.2%,95.2%
≤ 10 µM,> 20 µM,> 20 µM,> 20 µM,> 20 µM,"COc1ccc2c(c1)CCN(CCNC(=O)C1CCN(c3ccc(C(F)(F)F)cn3)CC1)C2 [Compound 22, N-(2-(6-methoxy-3,4-dihydroisoquinolin-2(19)-yl)ethyl)-1-(5-(trifluoromethyl)pyridin-2-yl)piperidine-4-carboxamide]",,,,,
≤ 10 µM,> 20 µM,> 20 µM,10 to 20 µM,≤ 10 µM,COc1ccc2c(c1)CCN(CCCNC(=O)C1CCN(c3ccc(C#N)cc3)CC1)C2 [Compound 26],,,,,
≤ 10 µM,> 20 µM,≤ 10 µM,10 to 20 µM,> 20 µM,COc1ccc2c(c1)CCN(CCNC(=O)C1CCCN(c3ccc(C#N)cc3F)C1)C2 (stereo not drawn) [Compound 25],,,,,
> 20 µM,≤ 10 µM,> 20 µM,10 to 20 µM,> 20 µM,N#Cc1ccc(N2CCCC(C(=O)NCCN3CCc4ccccc43)C2)c(F)c1 (stereo not drawn) [Compound 15],,,,,
